Data: the NIST ThermoML archive (doi:10.1016/j.jct.2005.03.020)

Experiments:
[1] = xn = mol fraction of the nth substance listed; conditions: 298.15 K, 101.33 kPa, Liquid
[2] = excess molar enthalpy (molar enthalpy of mixing); xn = mol fraction of the nth substance listed; conditions: 298.15 K, 101.33 kPa, Liquid

CCCCC(=O)OCC [ethyl pentanoate] + ClCCCCl
Conditions	excess molar enthalpy [kcal/mol]	mass density [kg/m3]
[1], x1 = 0.0395	–	1159.55
[1], x1 = 0.0785	–	1141.75
[1], x1 = 0.1207	–	1123.43
[1], x1 = 0.1642	–	1105.29
[1], x1 = 0.2098	–	1087.19
[1], x1 = 0.2576	–	1069.12
[1], x1 = 0.3081	–	1050.97
[1], x1 = 0.3623	–	1032.41
[1], x1 = 0.4179	–	1014.41
[1], x1 = 0.4804	–	995.25
[1], x1 = 0.538	–	978.58
[1], x1 = 0.6036	–	960.5
[1], x1 = 0.744	–	925.06
[1], x1 = 0.8249	–	906.38
[1], x1 = 0.9085	–	888.3
[2], x2 = 0.0493	-0.00743	–
[2], x2 = 0.0986	-0.0147	–
[2], x2 = 0.1536	-0.0238	–
[2], x2 = 0.2082	-0.0333	–
[2], x2 = 0.261	-0.0426	–
[2], x2 = 0.3126	-0.052	–
[2], x2 = 0.3627	-0.061	–
[2], x2 = 0.4084	-0.066	–
[2], x2 = 0.4405	-0.0697	–
[2], x2 = 0.4492	-0.0707	–
[2], x2 = 0.5044	-0.0725	–
[2], x2 = 0.5692	-0.0725	–
[2], x2 = 0.6438	-0.0687	–
[2], x2 = 0.7284	-0.0593	–
[2], x2 = 0.8181	-0.0439	–
[2], x2 = 0.9124	-0.0246	–

ClCCCCl [1,3-dichloropropane] + CCCC(=O)OCC
Conditions	excess molar enthalpy [kcal/mol]	mass density [kg/m3]
[1], x2 = 0.0446	–	1159.59
[1], x2 = 0.088	–	1141.99
[1], x2 = 0.1341	–	1124.03
[1], x2 = 0.1825	–	1105.75
[1], x2 = 0.2294	–	1088.7
[1], x2 = 0.2836	–	1069.63
[1], x2 = 0.3377	–	1051.42
[1], x2 = 0.3924	–	1033.68
[1], x2 = 0.4475	–	1016.45
[1], x2 = 0.5058	–	998.9
[1], x2 = 0.5686	–	980.73
[1], x2 = 0.6322	–	963.09
[1], x2 = 0.6986	–	945.45
[1], x2 = 0.7724	–	926.66
[1], x2 = 0.8405	–	910.03
[2], x2 = 0.045	-0.00619	–
[2], x2 = 0.0966	-0.0152	–
[2], x2 = 0.1504	-0.0234	–
[2], x2 = 0.2076	-0.0352	–
[2], x2 = 0.2635	-0.0452	–
[2], x2 = 0.3171	-0.0564	–
[2], x2 = 0.3678	-0.0673	–
[2], x2 = 0.4155	-0.0743	–
[2], x2 = 0.4596	-0.0781	–
[2], x2 = 0.5012	-0.0799	–
[2], x2 = 0.5417	-0.0797	–
[2], x2 = 0.605	-0.0778	–
[2], x2 = 0.6754	-0.071	–
[2], x2 = 0.7523	-0.0583	–
[2], x2 = 0.8348	-0.0428	–
[2], x2 = 0.9216	-0.0239	–
